Measurements from patent US20100189688A1, “Dose forms comprising VX-950 and their dosage regimen” (priority 2007, published 2010).
≈ marks a conversion by molar mass, not a printed value. Where “and” joins values, the source holds several entries; their conditions need not be identical. Equal values may be shown once. Marks after values point to notes of the source that are not given here.

What was measured:
HCV = settings: monotherapy, fraction of cases; cited from earlier work
[1] = Single-dose escalation tolerance and pharmacokinetics study in healthy male volunteers (Example 3); settings: single doses 25 mg to 1250 mg
Procedure: (§2) A dose escalation scheme was used that combined dose doubling and modified Fibonacci to be aggressive in the lower dose range and conservative in the higher dose range.
(§3) A pharmacokinetics analysis was performed using the statistical moment approach.

IFN-β promoter activity = assay: IFN-β promoter luciferase activity in Sendai virus stimulated Huh7 cells expressing HCV protease; settings: 10 μM VX-950, Huh7 cells, Sendai virus stimulation, 16 hours post-infection
[2] = tested on: ALT (alanine aminotransferase); assay: 14-day multiple-dose study: serum ALT / AST levels; format: in vivo, human
Source text: The serum alanine aminotransferase (ALT) level can be measured using commercially available methods. Mean ALT levels, elevated at baseline, decreased during dosing in all groups (FIG. 6). Mean ALT levels increased, returned toward baseline, in all dose groups during follow up.

HCV genotype 1 = assay: 14-day multiple-dose study in Hepatitis C positive subjects: plasma HCV RNA (Example 5); format: in vivo, human; settings: for mean HCV RNA drop: 750 mg q8h
Procedure: Detection of HCV RNA can be done, e.g., by using the Roche COBAS TaqMan HCV/HPS assay, available from Roche molecular Diagnostics. Subjects (or patients) receiving 750 mg of VX-950 every eight hours for 14 days achieved a median reduction in HCV-RNA of greater than 4 log10 (i.e., 10,000-fold decrease) at the end of the treatment. […] See Example 5 and FIGS. 3-5.
(§1) All other 34 subjects completed the study.
The HCV positive subjects were tested post-treatment to monitor HCV RNA levels' return to baseline.

infectious virus = assay: Infectious virus assay; format: cell-based
WT-HCV protease-SEAP = settings: SCID mice expressing WT-HCV protease-SEAP; cited from earlier work
genotype 1 hepatitis C = assay: Phase 1b 14-day study of VX-950, VX-950/Peg-IFN-2a or Peg-IFN-2a followed by Peg-IFN-2a/RBV: HCV RNA and SVR (Example 9); settings: for patients who achieved SVR: 14 days of VX-950 (alone or in combination with PEG-IFN) then PEG-IFN with RBV
[3] = in vivo
clinical = settings: male, human, in vivo, po
Procedure: as §2, §3

[4] = human, in vivo
Procedure: as §2, §3

neopterin = assay: 14-day multiple-dose study: serum neopterin (ELISA)
[5] = tested on: hepatitis C virus (HCV) replicon; assay: HCV replicon cell assay; settings: 48 h
[6] = Multiple-dose study (Example 5): tolerability and VX-950 plasma trough levels; format: in vivo, human
Procedure: as §1
The assay for determined VX-950 concentration in human plasma was performed by methods well known in the art. See, e.g., Wasley, A. et al., Semin. Liver Dis., 20:1-16, 2000; Alter, H. J. et al., Semin. Liver Dis., 20: 17-35, 2000; Brown, R. S. Jr. et al., Liver Transpl., 9: S10-S13, 2003; DeFrancesco, R. et al., Nature, 436(7053): 953-960, 2005; Bowen, D. G. et al., J. Hepatol., 42: 408-417, 2005; Hoofnagle, J. H., Hepatology, 36: S21-S29, 2002, Brown, R. S. Jr. et al., Nature, 436 (7053): 973-978, 2005; and Chisari, F. V., Nature, 436(7053): 930-932, 2005.
Sample Preparation: 100 μL of plasma and 100 μL of internal standard working solution (or acetonitrile for blank samples) were added to an extraction tube. After vortex mixing for 30 seconds, 500 μL of toluene was added and extraction was performed by vortex mixing for 30 seconds. After centrifugation at 3000 rpm at 4° C. for 5 minutes, the aqueous layer was frozen in a mixture of acetone and dry ice and the organic layer was transferred to another extraction tube. 50 μL of 2,2-dimethoxypropane was added and the samples were evaporated to dryness under nitrogen at approximately 30° C. The residue was re-dissolved in 300 μL of a mixture of heptane and acetone (90:10, v/v) [or a mixture of heptane and THF (80:20, v/v)] by vortex mixing for 60 seconds. […]

[7] = Predicted human liver exposure relative to replicon assay IC50/IC90; settings: in the dose range studied
HCV NS3/4A protease = HCV NS3/4A protease (Hepatitis C virus genotype 1a, UniProt P27958); assay: In vitro cleavage of TRIF by HCV NS3 protease; format: biochemical; settings: 10 μM VX-950, tNS3 0-4 μM
Procedure: The 35S methionine labeled coupled in vitro transcription/translation product of TRIF protein (as a substrate) was incubated with increasing concentration of tNS3 protease enzyme ranging from 0-4 μM either in the presence (Circles) or absence (Squares) of 10 μM VX-950, followed by SDS-PAGE and exposure to phosphorimager.

[8] = of the 8 subjects receiving 750 mg q8h
[9] = at the completion of the 14-day dosing period

Sequence of HCV NS3/4A protease (P27958 1027-1208, other chains not shown): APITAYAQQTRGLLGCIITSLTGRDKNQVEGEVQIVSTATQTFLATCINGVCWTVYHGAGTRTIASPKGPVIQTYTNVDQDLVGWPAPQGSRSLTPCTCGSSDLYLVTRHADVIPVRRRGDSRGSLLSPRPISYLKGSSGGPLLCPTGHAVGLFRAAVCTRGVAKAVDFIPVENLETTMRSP

Compound: interferon alfa
- long term remission (HCV): ~25%

Compound: CCC[C@H](NC(=O)[C@@H]1[C@H]2CCC[C@H]2CN1C(=O)[C@@H](NC(=O)[C@@H](NC(=O)c1cnccn1)C1CCCCC1)C(C)(C)C)C(=O)C(=O)NC1CC1 [VX-950]
- tolerability of single doses [1]: well tolerated at all dose levels
- effect on WT HCV protease mediated suppression of IFNβ promoter activation (IFN-β promoter activity): overcomes the WT HCVpro mediated suppression of IFNβ promoter activation
- median ALT value ([2]; 450 mg q8h, day 12, 5 out of 10 samples missing (range 25-125)): 38 U/I
- effect on ALT levels in vivo ([2]; 14 days dosing): decreases
- effect on AST (aspartate aminotransferase) levels ([2]; upon administration): decreased
- Maximum change from baseline in HCV RNA (log10 IU/mL): subjects in category >−1 to <0 (HCV genotype 1; 450 mg q8h (n = 10)): 0 n (%)
- Maximum change from baseline in HCV RNA (log10 IU/mL): subjects in category >−2 to ≦−1 (HCV genotype 1; 450 mg q8h (n = 10)): 0 n (%)
- Maximum change from baseline in HCV RNA (log10 IU/mL): subjects in category >−3 to ≦−2 (HCV genotype 1; 450 mg q8h (n = 10)): 1 (10.0) n (%)
- Maximum change from baseline in HCV RNA (log10 IU/mL): subjects in category >−4 to ≦−3 (HCV genotype 1; 450 mg q8h (n = 10)): 7 (70.0) n (%)
- Maximum change from baseline in HCV RNA (log10 IU/mL): subjects in category >−5 to ≦−4 (HCV genotype 1; 450 mg q8h (n = 10)): 0 n (%)
- Maximum change from baseline in HCV RNA (log10 IU/mL): subjects in category ≧−5 (HCV genotype 1; 450 mg q8h (n = 10)): 2 (20.0) n (%)
- median reduction in HCV-RNA (HCV genotype 1; 750 mg every eight hours, end of 14 days): greater than 4 log10
- Maximum change from baseline in HCV RNA (log10 IU/mL): subjects in category >−1 to <0 (HCV genotype 1; 750 mg q8h (n = 8)): 0 n (%)
- Maximum change from baseline in HCV RNA (log10 IU/mL): subjects in category >−2 to ≦−1 (HCV genotype 1; 750 mg q8h (n = 8)): 0 n (%)
- Maximum change from baseline in HCV RNA (log10 IU/mL): subjects in category >−3 to ≦−2 (HCV genotype 1; 750 mg q8h (n = 8)): 0 n (%)
- Maximum change from baseline in HCV RNA (log10 IU/mL): subjects in category >−4 to ≦−3 (HCV genotype 1; 750 mg q8h (n = 8)): 3 (37.5) n (%)
- Maximum change from baseline in HCV RNA (log10 IU/mL): subjects in category >−5 to ≦−4 (HCV genotype 1; 750 mg q8h (n = 8)): 3 (37.5) n (%)
- Maximum change from baseline in HCV RNA (log10 IU/mL): subjects in category ≧−5 (HCV genotype 1; 750 mg q8h (n = 8)): 2 (25.0) n (%)
- mean HCV RNA drop (HCV genotype 1; day 3): 3.6 log10
- mean HCV RNA drop (HCV genotype 1; day 14): 4.3 log10
- Maximum change from baseline in HCV RNA (log10 IU/mL): subjects in category >−1 to <0 (HCV genotype 1; 1250 mg q12h (n = 10)): 0 n (%)
- Maximum change from baseline in HCV RNA (log10 IU/mL): subjects in category >−2 to ≦−1 (HCV genotype 1; 1250 mg q12h (n = 10)): 0 n (%)
- Maximum change from baseline in HCV RNA (log10 IU/mL): subjects in category >−3 to ≦−2 (HCV genotype 1; 1250 mg q12h (n = 10)): 1 (10.0) n (%)
- Maximum change from baseline in HCV RNA (log10 IU/mL): subjects in category >−4 to ≦−3 (HCV genotype 1; 1250 mg q12h (n = 10)): 9 (90.0) n (%)
- Maximum change from baseline in HCV RNA (log10 IU/mL): subjects in category >−5 to ≦−4 (HCV genotype 1; 1250 mg q12h (n = 10)): 0 n (%)
- Maximum change from baseline in HCV RNA (log10 IU/mL): subjects in category ≧−5 (HCV genotype 1; 1250 mg q12h (n = 10)): 0 n (%)
- drop in viral load in every patient (HCV genotype 1; all dose groups, during administration): at least 2 log10
- median reduction of HCV-RNA (HCV genotype 1; each of the other two dose groups (450 mg q8h, 1250 mg q12h), end of 14 days): greater than 2 log10
- effect on HCV replication in humans (HCV genotype 1; human, in vivo): effective in inhibiting HCV replication
- subjects with HCV RNA below the limit of detection (LLD 10 IU/mL) (HCV genotype 1; [8]): 2
- subjects with HCV RNA below the limit of quantitation (LLQ 30 IU/mL) (HCV genotype 1; [8]): 4
- subjects with a 3 log10 reduction in HCV-RNA (HCV genotype 1; within the first three days of treatment): 26 of the 28
- reduction in HCV-RNA achieved by every subject (HCV genotype 1; within the first three days of treatment, all dose groups): greater than 2 log10
- IC50 (infectious virus): 0.196 µg/mL (≈ 0.288 µM)
- effect on elevated ALT levels in an animal model (WT-HCV protease-SEAP): ameliorates elevated ALT levels
- SVR after a 2 week treatment of VX-950 (genotype 1 hepatitis C; 2 week treatment): SVR was achieved in a patient
- HCV RNA levels at the last off-study follow-up day (genotype 1 hepatitis C; 12 weeks after the last on-study follow-up, patients who continued with Peg-IFN-2a/RBV): undetectable in all patients
- antiviral activity (genotype 1 hepatitis C; 14 days): rapid and profound antiviral activity
- patients who achieved SVR (genotype 1 hepatitis C; treated for 24 weeks): 7 of 10
- patients who achieved SVR (genotype 1 hepatitis C; treated for 48 weeks): 3 of 5
- patients in whom SVR was achieved (genotype 1 hepatitis C; 14 days of VX-950 optionally in combination with Peg-INF, followed by Peg-INF/RBV for an additional 22 or 46 weeks): 10 of 15
- decrease of HCV RNA levels, generally (genotype 1 hepatitis C; [9]): at least 2 log10
- decrease of HCV RNA levels, in some cases (genotype 1 hepatitis C; [9]): at least 4 log10
- patients with undetectable HCV RNA (genotype 1 hepatitis C; at week 12): 5 of 7
- patients with undetectable HCV RNA (genotype 1 hepatitis C; at week 24, all patients who received VX-950 (alone or with PEG-IFN)): 15
- Undetectable HCV RNA at 24-week off study peg-IFN-2a/RBV treatment (genotype 1 hepatitis C; group sizes N 7 / 8 / 4): 7* N
- Undetectable HCV RNA at 12 weeks follow-up after stopping peg-IFN-2a/RBV (genotype 1 hepatitis C; patients who stopped Peg-IFN-2a/RBV at week 24): 2 of 4 and 2/4
- tolerability [3]: well tolerated
- Tmax (clinical): 3 h
- oral bioavailability ([4]; po): orally bioavailable
- VX-950 eliminated unchanged in the urine ([4]; male): Less than 2%
- mean neopterin level (neopterin; 750 mg q8h, day 14 (baseline 10.48±0.84 nmol/L; ULN 7.7)): 7.32 ± 0.48 nmol/L
- effect on neopterin levels in vivo (neopterin; 14 days dosing): decreases
- IC50 ([5]; read-out: IC50 in the replicon assay): ~0.24 µg/mL (≈ 0.353 µM)
- IC90 ([5]; read-out: IC90 in the replicon assay): ~0.476 µg/mL (≈ 0.7 µM)
- tolerability of multiple doses ([6]; 450 mg, 750 mg or 1250 mg, 5 or 14 days): well tolerated at all dose levels
- trough levels of VX-950 in plasma ([6]; about 750 mg three times a day, every 8 hours, compared with other regimens): highest trough levels
- predicted average liver concentration as multiple of replicon assay IC50 [7]: up to 113 fold
- predicted average liver concentration as multiple of replicon assay IC90 [7]: up to 57 fold
- effect on in vitro cleavage of TRIF by NS3 protease (HCV NS3/4A protease): inhibits in vitro cleavage of TRIF
